This note sets out measurements from patent US4579867A, “Stable pharmaceutical compositions of short-acting β-adrenergic receptor blocking agents” (American Hospital Supply Corporation, priority 1984, dated 1986).

Values after ≈ are worked out from the molar mass of the structure shown. Values joined by “and” are separate entries in the source; they are usually repeats but may differ in a detail not shown here. Equal entries are not always repeated. Where two headings read alike, the source gives them in different places.

Data set [1] concerns β-adrenergic receptor. Description: β-blocking activity and recovery from β-blockade in anesthetized dogs (isoproterenol heart rate response, 3-hour infusion). The class given is in vivo. Particulars: for Potency: 3-hour infusion, rate adjusted to about 50% isoproterenol inhibition, pentobarbital-anesthetized dogs; for % I (percent inhibition of heart rate response to isoproterenol): end of 3-hour infusion, isoproterenol 0.5 μg/kg; for Recovery Time 50%: 50% recovery from β-blockade after termination of infusion. The method, then: The duration of β-blockade was determined in vivo using pentobarbital-anesthetized dogs instrumented for measurement of heart rate using a Beckman cardiotachometer triggered electronically by a phasic aortic blood pressure signal. Both vagus nerves were severed in the cervical region and the animals were mechanically ventilated. The experimental design used employed a 3-hour infusion of test compound. Bolus doses of isoproterenol (0.5 μg/kg) were used to assess the degree of β-blockade and recovery from β-blockade after […] of the infusion. The doses were spaced at 10-minute intervals and were given before, during and following the infusion of test compounds. The infusion rate was adjusted so that at the end of the 3-hour infusion period the degree of isoproterenol inhibition averaged about 50% of control.

Data set [2] can be described thus: Comparison of degradation in aqueous solution and in the formulation (forced degradation, HPLC). The class given is physicochemical. The following applies: 75° C.; for degraded at 168 h: one week. The procedure: The sulfate salt of the compound of Formula II in aqueous solution when stored at 75° C. degraded about 70% in one week. In contrast, when formulated in the pharmaceutical composition as noted and placed under the same storage conditions, it degraded only about 25%.
The results of this comparison are represented in FIG. 5. Samples for the study were prepared and tested as follows:
b. Aqueous at 75° C.--10 mg of sulfate salt of Formula II were dissolved in 100 mL of deionized water. A 2 mL portion of this solution was transferred to a vial and placed in a 75° C. oven. A series of vials were prepared and evaluated at various intervals. Each time 2 mL of mobile phase was added to the vial (final conc. 50 μg/mL) for subsequent HPLC evaluation. The results are plotted as curve B in FIG. 5.
c. Forced Degradation of the Formulation was carried out using a solution containing the sulfate salt of Formula II, 100 mg/mL, in Acetate Buffer (0.35M) containing 20% of Propylene Glycol:Ethanol (50:50) having a pH 3.17. The formulation solution was divided into 2 parts, placed in 55° C. and 75° C. ovens and tested periodically. To evaluate the formulation, the solution was diluted 1 mL to 100 mL of mobile phase, then 5 mL to 100 mL in mobile phase (final conc.--50 μg/mL) for subsequent HPLC evaluation.
The rates of decomposition were monitored by HPLC and compared to the respective initial concentrations at 220 nm. In order to insure that the peak was that of the sulfate salt and not an impurity, excipient or product of decomposition, the peak was scanned using a variable wavelength detector ([…]). Using the Perkin-Elmer LC-75 Detector Stop Flow System described below:
A 70 μL portion of the sulfate salt degraded samples were injected manually into the HPLC L-75 equipped with a variable wavelength detector, programmed to scan wavelengths from 200 to 320 nm. When the sulfate salt reached the detector cell, the flow of mobile phase was stopped and the scan initiated from 200 to 320 nm. In this manner, only the peak corresponding to the sulfate salt was measured.

Data set [3] in a line: Solubility in various vehicles (HPLC). The class given is physicochemical. The method, then: Initially, the solubility of the compound was determined in various vehicles. The amount dissolved was measured by HPLC (Table 2). […] Based on this acidic nature, a tartrate buffer was selected. It was foun that the molar ratio of active β-blocking agent to buffer was critical, 1:1 to 3:1 to stabilized product.
Samples were dissolved or diluted with the mobile phase, methanol--pH 3.4 phosphate buffer solution. The resulting solutions were diluted with benzoic acid internal standard solution and chromatographed on a octadecyl silane column with detection at 229 nm. […] The method is linear, quantitative, rugged and reproducible with a sensitivity of 2 ug/ml. Either peak height or peak area ratios can be used for quantitation.

A short description of data set [4]: Shelf life / storage stability of solutions. The class given is physicochemical. The following applies: within a week; room temperature; without stabilization; read-out: potency loss.
A short description of data set [5]: pKa. The class given is physicochemical.
A short description of data set [6]: Kinetic degradation study in solution at 75° C. The class given is physicochemical. The procedure: In order to determine the pH at which the formulation would show maximum stability, a kinetic degradation study was employed. pH of solutions ranging from 2-4, containing 0.1M each of the compound of formula II and tartrate buffer were stored at 75° C. At various time intervals, samples were taken and assayed for the compound.
The kinetic data obtained was plotted as a log of drug concentration versus time. The apparent first-order rate constants were calculated from the slopes of the linear regression lines fitted to log (C)=log (Co)[…] where C is drug concentration at time t, Co is the initial drug concentration and k is the apparent first-order rate constant.
The logarithm of the potency versus time in all cases produced linear plots. The apparent first-order rate constants were calculated from the slopes of the linear regression lines (not shown) and are presented in FIG. 1.
The ratio of the two organic vehicles, namely propylene glycol and alcohol were determined by making solutions of the compound of formula II in the vehicle and testing the stability at 75° C. Samples were removed after specified times and measured for potency.
FIG. 3 illustrates the stability of the compound of formula II in hydroalcoholic solution buffered at pH 3 by sodium tartrate. An identical stability study was conducted with a solution without buffering agent (FIG. 4).

As for `CC(C)NCC(O)COc1cccc2ccccc12` (centres unmarked) [Propranolol, reference compound], the Potency in data set [1] is listed as 0.2 mg/kg/180 min. Moreover, the “% I (percent inhibition of heart rate response to isoproterenol)” value in data set [1] (dogs) is listed as 67 ± 6%.

In turn, `CC(C)(CNC(=O)C1CCCCC1)NCC(O)COC(=O)c1ccccc1F` (centres unmarked) [Compound 6] displayed a Potency in data set [1] of 1.4 mg/kg/180 min.

For `O=C(CC1CCCCC1)NCCNCC(O)COC(=O)c1ccccc1F` (centres unmarked) [Compound 8], in data set [1] (dogs), the “Recovery Time 50%” value is 3,4 min; the “% I (percent inhibition of heart rate response to isoproterenol)” value is 43% and 55%.

As to `CC(C)(CNC(N)=O)NCC(O)COC(=O)c1ccccc1F` (centres unmarked), the degraded at 168 h was around 25% in data set [2] (formulated in the pharmaceutical composition) and around 70% in data set [2] (aqueous solution (deionized water), aqueous solution). In addition, the increase in stability result in data set [2] (formulated vs aqueous solution) is recorded as “three fold increase in stability”. Besides, the Solubility stood at 2.24 % w/w in data set [3] (Alcohol USP (EtOH)); 2.64 % w/w in data set [3] (Polyethylene Glycol 200 USP (PEG)); 3.47 % w/w in data set [3] (Propylene Glycol USP (PG)); 5.21 % w/w in data set [3] (WFI (5%), EtOH (45%), PEG (50%)); 7.20 % w/w in data set [3] (WFI (5%), EtOH (45%), PG (50%)); 7.50 % w/w in data set [3] (WFI (5%), EtOH (95%)). The Solubility came to 3.83 % w/w in data set [3] (WFI (5%), PEG (95%)); 56 mg/mL (≈ 171 mM) in data set [3] (WFI (5%), PG (95%), read-out: Solubility); 507 mg/mL (≈ 1550 mM) in data set [3] (Water for Injection USP (WFI), read-out: Solubility).

In data set [1], `CC(C)(CNC(=O)N1CCOCC1)NCC(O)COC(=O)c1ccc(O)c(O)c1` (centres unmarked) [Compound 12] gave a Potency of 0.08 mg/kg/180 min.

In data set [1], `CC(C)(CNC(=O)C1CCCCC1)NCC(O)COC(=O)c1ccccc1F` (centres unmarked) [Compound 7] returned a Potency of 1.8 mg/kg/180 min. For the same compound, in data set [1] (dogs), the “Recovery Time 50%” value came to 8 min and the “% I (percent inhibition of heart rate response to isoproterenol)” value was found to be 68%. Besides, in data set [1] (80% recovery from β-blockade after termination of infusion, dogs), the “Recovery Time 80%” value worked out at 19 min.

Turning to `CC(C)C(=O)NCC(C)(C)NCC(O)COC(=O)c1ccccc1F` (centres unmarked) [Compound 5], the Potency in data set [1] is recorded as 0.6 mg/kg/180 min.

`CC(C)(CNC(N)=O)NCC(O)COC(=O)c1ccccc1F` (centres unmarked) [compound of formula II, N-(1,1-Dimethyl-2-ureidoethyl)-2-hydroxy-3-(O-fluorobenzoyloxy) propylamine]: the degraded at 168 h in data set [4] is 10%. In addition, the pKa in data set [5] was found to be 8.17. In data set [6] (FIG. 2), the “propylene glycol to alcohol ratio and degradation” value is listed as 1:1 ratio of the two substances minimizes degradation. Besides, the “rate of degradation (slope)” value was found to be 0.0387 day⁻¹ in data set [6] (hydroalcoholic solution (15% propylene glycol, 15% alcohol) buffered at pH 3 by sodium tartrate) and 0.0709 day⁻¹ in data set [6] (hydroalcoholic solution (15% propylene glycol, 15% alcohol), unbuffered). For the same compound, the “stability of buffered relative to unbuffered preparation” value in data set [6] (pH 3 sodium tartrate vs no buffer) is reported as “approximately twice as stable”.

With `CCOC(=O)NCC(C)(C)NCC(O)COC(=O)c1ccccc1F` (centres unmarked) [Compound 21], the Potency in data set [1] was determined as 6.5 ± 1.8 mg/kg/180 min.

For the compound `CC(=O)NCC(C)(C)NCC(O)COC(=O)c1ccccc1F` (centres unmarked) [Compound 4], in data set [1], the Potency was found to be 2.7 mg/kg/180 min.

`CC(C)(CNC(N)=O)NCC(O)COC(=O)c1ccccc1F` (centres unmarked) [Compound 17] returned a Potency in data set [1] of 0.7 mg/kg/180 min.
